From article PMC8070745, “FEN1 Blockade for Platinum Chemo-Sensitization and Synthetic Lethality in Epithelial Ovarian Cancers” (Cancers, 2021)

What was measured:
[1] = tested on: A2780cis cells; test: Neutral COMET assay, A2780cis; type: cell-based, human; conditions: combination with cisplatin vs cisplatin or FEN1i monotherapy
Protocol: (1:200, ab26343). Infrared dye-labelled secondary antibodies (Li-Cor) [IRDye 800CW Donkey Anti-Rabbit IgG and IRDye 680CW Donkey Anti-Mouse IgG] were incubated at a dilution of 1:10000 for 1 h. Membranes were scanned with a LiCor Odyssey machine (700 and 800 nm) to determine protein expression. ß-Tubulin or ß-actin was used as a loading controls for the whole cell lysates. GADPH and YYI were used as loading controls to cytoplasmic and nuclear fractions, respectively. First incubation was with FEN1 antibody and then imaged. This was followed by incubation with loading control and then imaged for analysis. Bar charts show means of optical density (O.D.) ± S.D and all data is representative of at least three independent experiments. qRT-PCR analysis of FEN1 gene expre ssion: RNA was extracted using the RNeasy Mini Kit (74104, Qiagen) and quantified using a Nanodrop 2000c (Thermo Fisher Scientific). cDNA synthesis was performed using the RT2 First Strand Kit (330404, Qiagen). Real time PCR was carried out on an Applied Biosystems […] FAST cycler.
Neutral COMET assay: 1.0x10^5 cells per well were seeded in 6 well tissue culture plates and incubated at 37°C and 5% CO2 overnight. […] Fifty comets were scored per sample using Comet Assay III/IV image analysis software (Perceptive Instruments, Bury St Edmonds, UK). […]

[2] = tested on: A2780cis spheroids; test: 3D spheroid assay, A2780cis; type: cell-based, human; conditions: FEN1i/cisplatin combination vs cisplatin or FEN1i monotherapy
Protocol: with ice cold PBS and fixed in 70% ethanol for 1h at -20°C. After removal of the fixative solution by centrifugation, cells were stained with 2 µg/ml of phospho-Histone (γH2AX) Ser139 (16202A, Millipore, UK) to detect DSBs.
Cell cycle progression: Cells were treated with 20 µg/ml RNase A (12091021, Invitrogen) and then 10 µg/ml Propidium Iodide (P4170, Sigma Aldrich) was added to determine the cell cycle distribution. The samples were analysed on a Beckman-Coulter FC500 flow cytometer using a 488nm laser for excitation and emission data for PI collected using a 620nm bandpass filter (FL3) and a 525nm bandpass filter (FL1) for FITC-anti-phospho-Histone H2A.X.
Apoptosis detection: Annexin V detection kit (556547, BD Biosciences) was used to quantify apoptotic cells. Briefly, cells were trypsinized, washed with PBS and the cellular pellet was re-suspended in Anexin Binding Buffer (1×). […] All the samples were analysed on a Beckman-Coulter FC500 flow cytometer. The percentage of apoptotic cells was determined (late apoptotic = FITC-Annexin V positive, PI positive early apoptotic = FITC-Annexin V positive, PI negative; live cells = FITC-Annexin V negative, PI negative) and compared for untreated and treated samples. […]
To quantify cell viability, LIVE/DEAD Viability/Cytotoxicity Kit (L3224, Thermo Fisher Scientific) was used. […] At least 10 spheroids were measured. […]

Cc1csc2c1c(=O)n(O)c(=O)n2-c1ccccc1 [PTPD, 3-hydroxy-5-methyl-1-phenylthieno [2,3 d]pyrimidine-2,4(1H,3H)-dione]
DNA breaks (neutral COMET) [1]: substantially increased DNA breaks | cell death in 3D-spheroids [2]: increased cell death
